From patent US20250179000A1 (Sanford Burnham Prebys Medical Discovery Institute, priority 2021, published 2025)

Legend:
[1] = target: Human mGlu2 (Homo sapiens, UniProt Q14416); experiment: mGlu receptor in vitro assay, human mGlu2; assay type: cell-based
[2] = target: Human mGlu3 (Homo sapiens, UniProt Q14832); experiment: mGlu receptor in vitro assay, human mGlu3; assay type: cell-based
Description: Human Embryonic Kidney (HEK-293) cell lines co-expressing rat mGlu receptors 2, 3, 4, 6, 7 or 8 and G protein-coupled inwardly-rectifying potassium (GIRK) channels were grown in Growth Media containing 45% DMEM, 45% F-12, 10% FBS, 20 mM HEPES, 2 mM L-glutamine, antibiotic/antimycotic, non-essential amino acids, 700 μg/mL G418, and 0.6 μg/ml puromycin at 37° C. in the presence of 5% CO2. […] All cell culture reagents were purchased from Invitrogen Corp. (Carlsbad, CA) unless otherwise noted. Calcium assays were used to assess activity of compounds at mGlu1 and mGlu5, as previously described in Engers et al (J. Med. Chem. 2009, 52, 4115-4118). Calcium assays at mGlu3 were performed as described for mGlu5 with the exception that TREx293 mGlu3 Gα15 cells were treated with tetracycline at 20 ng/mL for 20 h prior to assay.
Briefly, cells were plated into 384-well, black-walled, clear-bottomed poly-D-lysine-coated plates at a density of 15,000 cells/20 μL/well in DMEM containing 10% dialyzed FBS, 20 mM HEPES, and 100 units/mL penicillin/streptomycin (assay media). Plated cells were incubated overnight at 37° C. in the presence of 5% CO2. The following day, the medium was exchanged from the cells to assay buffer [Hanks' balanced salt solution (Invitrogen) containing 20 mM HEPES, pH 7.3] using an ELX405 microplate washer (BioTek), leaving 20 μL/well, followed by the addition of 20 μL/well FluoZin2-AM (330 nM final concentration) indicator dye (Invitrogen; prepared as a stock in DMSO and mixed in a 1:1 ratio with Pluronic acid F-127) in assay buffer. Cells were incubated for 1 h at room temperature, and the dye exchanged to assay buffer using an ELX405, leaving 20 μL/well. Test compounds were diluted to 2 times their final desired concentration in assay buffer (0.3% DMSO final concentration). Agonists were diluted in thallium buffer [125 mM sodium bicarbonate (added fresh the morning of the experiment), 1 mM magnesium sulfate, 1.8 mM calcium sulfate, 5 mM glucose, 12 mM thallium sulfate, and 10 mM HEPES, pH 7.3] at 5 times the final concentration to be assayed. Cell plates and compound plates were loaded onto a kinetic imaging plate reader (FDSS 6000 or 7000; Hamamatsu Corporation, Bridgewater, NJ). Appropriate baseline readings were taken (10 images at 1 Hz; excitation, 470±20 nm; emission, 540±30 nm) and test compounds were added in a 20 μL volume and incubated for approximately 2.5 min before the addition of 10 μL of thallium buffer with or without agonist. After the addition of agonist, data were collected for approximately an additional 2.5 min. Data were analyzed using Excel (Microsoft Corp, Redmond, WA). The slope of the fluorescence increase beginning 5 s after thallium/agonist addition and ending 15 s after thallium/agonist addition was calculated, corrected to vehicle and maximal agonist control slope values, and plotted in using either XLfit (ID Business Solutions Ltd) or Prism software (GraphPad Software, San Diego, CA) to generate concentration-response curves. Potencies were calculated from fits using a four-point parameter logistic equation. For concentration-response curve experiments, compounds were serially diluted 1:3 into 10-point concentration response curves and were transferred to daughter plates using an Echo acoustic plate reformatter (Labcyte, Sunnyvale, CA). Test compounds were applied and followed by EC20 concentrations of glutamate.

Chain of Human mGlu2 (Q14416 19-872): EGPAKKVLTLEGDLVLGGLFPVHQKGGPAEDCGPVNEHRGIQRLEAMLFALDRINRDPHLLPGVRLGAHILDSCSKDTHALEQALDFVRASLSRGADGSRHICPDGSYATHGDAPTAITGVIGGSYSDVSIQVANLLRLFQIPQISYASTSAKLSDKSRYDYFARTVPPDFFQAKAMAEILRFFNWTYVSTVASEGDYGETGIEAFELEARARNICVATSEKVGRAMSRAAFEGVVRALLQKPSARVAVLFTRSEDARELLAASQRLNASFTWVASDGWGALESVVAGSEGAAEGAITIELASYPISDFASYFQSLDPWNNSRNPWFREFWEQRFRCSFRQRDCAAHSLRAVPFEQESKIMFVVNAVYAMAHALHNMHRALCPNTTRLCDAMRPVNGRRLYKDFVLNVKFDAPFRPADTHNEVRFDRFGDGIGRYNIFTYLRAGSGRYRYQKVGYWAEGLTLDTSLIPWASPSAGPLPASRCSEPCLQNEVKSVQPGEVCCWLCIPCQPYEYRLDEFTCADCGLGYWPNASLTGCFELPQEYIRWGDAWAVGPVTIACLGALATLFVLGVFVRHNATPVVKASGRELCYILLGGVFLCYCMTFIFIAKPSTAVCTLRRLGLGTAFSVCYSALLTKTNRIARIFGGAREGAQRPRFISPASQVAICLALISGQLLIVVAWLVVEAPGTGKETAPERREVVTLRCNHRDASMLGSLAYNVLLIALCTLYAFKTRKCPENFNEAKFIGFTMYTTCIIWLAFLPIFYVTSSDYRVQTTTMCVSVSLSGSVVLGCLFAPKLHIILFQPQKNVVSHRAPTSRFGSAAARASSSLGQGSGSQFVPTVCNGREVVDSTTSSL
Chain of Human mGlu3 (Q14832 23-879): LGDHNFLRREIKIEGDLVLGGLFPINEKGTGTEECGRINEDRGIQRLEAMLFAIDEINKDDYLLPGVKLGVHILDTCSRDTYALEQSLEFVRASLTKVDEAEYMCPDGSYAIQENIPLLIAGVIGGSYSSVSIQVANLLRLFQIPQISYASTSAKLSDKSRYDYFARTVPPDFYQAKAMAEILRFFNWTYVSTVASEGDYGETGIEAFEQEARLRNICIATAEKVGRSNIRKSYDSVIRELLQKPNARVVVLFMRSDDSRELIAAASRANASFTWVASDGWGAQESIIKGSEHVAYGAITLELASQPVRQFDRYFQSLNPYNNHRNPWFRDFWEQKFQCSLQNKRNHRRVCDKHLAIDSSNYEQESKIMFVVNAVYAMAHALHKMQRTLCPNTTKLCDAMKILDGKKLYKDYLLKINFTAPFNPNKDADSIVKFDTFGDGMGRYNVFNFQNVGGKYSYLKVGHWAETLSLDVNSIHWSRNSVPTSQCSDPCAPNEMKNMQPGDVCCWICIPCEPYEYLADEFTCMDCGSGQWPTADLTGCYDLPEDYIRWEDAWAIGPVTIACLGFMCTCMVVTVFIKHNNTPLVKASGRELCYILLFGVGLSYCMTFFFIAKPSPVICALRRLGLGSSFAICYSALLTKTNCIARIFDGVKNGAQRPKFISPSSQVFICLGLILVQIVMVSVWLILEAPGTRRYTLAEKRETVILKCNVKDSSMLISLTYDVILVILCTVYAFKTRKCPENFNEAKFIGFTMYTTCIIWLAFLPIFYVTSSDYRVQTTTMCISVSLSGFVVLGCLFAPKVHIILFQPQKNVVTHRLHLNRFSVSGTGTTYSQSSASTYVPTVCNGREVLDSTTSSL

Row | Structure (SMILES) | EC50 [1] [nM] | EC50 [2] [nM]
1 | Cc1c(OCc2nc(-c3cccc(C(=O)O)c3)no2)ccc(C(=O)C2CC2)c1O [compound 77, 3-(5-((4-(Cyclopropanecarbonyl)-3-hydroxy-2-methylphenoxy)methyl)-1,2,4-oxadiazol-3-yl)benzoic acid] | 119 | > 10000
2 | COc1c(C(=O)O)cccc1-c1cnc(COc2ccc(C(=O)C3CC3)c(O)c2C)cn1 [compound 78, 3-(5-((4-(Cyclopropanecarbonyl)-3-hydroxy-2-methylphenoxy)methyl)pyrazin-2-yl)-2-methoxybenzoic acid] | 41 | 1930
3 | Cc1c(OCCCCSc2cccc(C(=O)O)c2)ccc(C(=O)CC(C)(C)C)c1O [compound 80, 3-((4-(4-(3,3-Dimethylbutanoyl)-3-hydroxy-2-methylphenoxy)butyl)thio)benzoic acid] | 228 | 461
4 | Cc1c(SCCCCSc2cccc(C(=O)O)c2)ccc(C(=O)CC(C)(C)C)c1O [compound 82, 3-{4-[4-(3,3-Dimethylbutanoyl)-3-hydroxy-2-methylphenylthio]butylthio}benzoic acid] | 423 | 3000
5 | COc1cc(C(=O)O)cc(-c2cnc(COc3ccc(C(=O)CC(C)(C)C)c(O)c3C)cn2)c1 [compound 129, 3-(5-((4-(3,3-Dimethylbutanoyl)-3-hydroxy-2-methylphenoxy)methyl)pyrazin-2-yl)-5-methoxybenzoic acid] | 729 | 364
6 | COc1ccc(C(=O)O)cc1OCCCCOc1ccc(C(=O)CC(C)(C)C)c(O)c1-c1ccccc1 [compound 131, 3-(4-((5-(3,3-Dimethylbutanoyl)-6-hydroxy-[1,1′-biphenyl]-2-yl)oxy)butoxy)-4-methoxybenzoic acid] | 231 | 1050
7 | Cc1c(OCc2nnc(-c3cccc(C(=O)O)c3)o2)ccc(C(=O)CC(C)(C)C)c1O [compound 134, 3-(5-((4-(3,3-Dimethylbutanoyl)-3-hydroxy-2-methylphenoxy)methyl)-1,3,4-oxadiazol-2-yl)benzoic acid] | 243 | 327
8 | Cc1c(OCc2cnc(-c3ccc(C(=O)O)c(F)c3)cn2)ccc(C(=O)CC(C)(C)C)c1O [compound 137, 4-(5-((4-(3,3-Dimethylbutanoyl)-3-hydroxy-2-methylphenoxy)methyl)pyrazin-2-yl)-2-fluorobenzoic acid] | 913 | 3950
9 | Cc1c(OCc2cnc(-c3ccc(Cl)c(C(=O)O)c3)cn2)ccc(C(=O)CC(C)(C)C)c1O [compound 138, 2-Chloro-5-(5-((4-(3,3-Dimethylbutanoyl)-3-hydroxy-2-methylphenoxy)methyl)pyrazin-2-yl)benzoic acid] | 445 | 104
10 | Cc1c(OCc2cnc(-c3cc(F)cc(C(=O)O)c3)cn2)ccc(C(=O)CC(C)(C)C)c1O [compound 139, 3-(5-((4-(3,3-Dimethylbutanoyl)-3-hydroxy-2-methylphenoxy)methyl)pyrazin-2-yl)-5-fluorobenzoic acid] | 1750 | 1080
11 | Cc1c(OCc2cnc(-c3ccc(C(=O)O)s3)cn2)ccc(C(=O)CC(C)(C)C)c1O [compound 141, 5-(5-((4-(3,3-Dimethylbutanoyl)-3-hydroxy-2-methylphenoxy)methyl)pyrazin-2-yl)thiophene-2-carboxylic acid] | 547 | 603
12 | Cc1c(OCc2cnc(-c3ccc(C(=O)O)cc3Cl)cn2)ccc(C(=O)CC(C)(C)C)c1O [compound 143, 3-Chloro-4-(5-((4-(3,3-Dimethylbutanoyl)-3-hydroxy-2-methylphenoxy)methyl)pyrazin-2-yl)benzoic acid] | 291 | 580
13 | Cc1cc(C(=O)O)ccc1-c1cnc(COc2ccc(C(=O)CC(C)(C)C)c(O)c2C)cn1 [compound 144, 4-(5-{[4-(3,3-Dimethylbutanoyl)-3-hydroxy-2-methylphenoxy]methyl}pyrazin-2-yl)-3-methylbenzoic acid] | 112 | 89
14 | Cc1c(OCc2cnc(-c3cccc(O)c3)cn2)ccc(C(=O)CC(C)(C)C)c1O [compound 145, 1-(2-Hydroxy-4-{[5-(3-hydroxyphenyl)pyrazin-2-yl]methoxy}-3-methylphenyl)-3,3-dimethylbutan-1-one] | > 10000 | > 10000
15 | COc1c(C(=O)O)cccc1-c1cnc(COc2ccc3c(c2C)OC(C)(C)CC3=O)cn1 [compound 147, 2-Methoxy-3-(5-(((2,2,8-trimethyl-4-oxochroman-7-yl)oxy)methyl)pyrazin-2-yl)benzoic acid] | > 30000 | > 30000
16 | Cc1c(OCc2cnc(-c3cncc(C(=O)O)c3)cn2)ccc(C(=O)CC(C)(C)C)c1O [compound 148, 5-(5-((4-(3,3-Dimethylbutanoyl)-3-hydroxy-2-methylphenoxy)methyl)pyrazin-2-yl)nicotinic acid] | > 10000 | > 30000
17 | COc1ccc(C(=O)O)c(-c2cnc(COc3ccc(C#CCO)c(C)c3C)cn2)c1 [compound 150] | > 10000 | > 30000
18 | COc1ccc(C(=O)O)c(-c2cnc(COc3ccc(C#CCOCC(O)CO)c(C)c3C)cn2)c1 (centres unmarked) [compound 151] | > 30000 | > 30000
19 | COc1c(C(=O)O)cccc1-c1ccc(COc2ccc(C(=O)CC(C)(C)C)c(O)c2C)nc1 [compound 152, 3-(6-((4-(3,3-Dimethylbutanoyl)-3-hydroxy-2-methylphenoxy)methyl)pyridin-3-yl)-2-methoxybenzoic acid] | 130 | 74
20 | COc1c(C(=O)O)cccc1-c1ccc(COc2ccc(C(=O)CC(C)(C)C)c(O)c2C)cn1 [compound 153, 3-(5-((4-(3,3-Dimethylbutanoyl)-3-hydroxy-2-methylphenoxy)methyl)pyridin-2-yl)-2-methoxybenzoic acid] | 69 | 133
21 | COc1c(C(=O)O)cccc1-c1ccc(COc2ccc(C(=O)CC(C)(C)C)c(O)c2C)nn1 [compound 154, 3-(6-((4-(3,3-Dimethylbutanoyl)-3-hydroxy-2-methylphenoxy)methyl)pyridazin-3-yl)-2-methoxybenzoic acid] | 281 | 184
22 | COc1ccc(C(=O)O)cc1-c1noc(COc2ccc(C(=O)CC(C)(C)C)c(O)c2C)n1 [compound 156, 3-(5-((4-(3,3-Dimethylbutanoyl)-3-hydroxy-2-methylphenoxy)methyl)-1,2,4-oxadiazol-3-yl)-4-methoxybenzoic acid] | 78 | 117
23 | Cc1c(C(=O)O)cccc1-c1noc(COc2ccc(C(=O)CC(C)(C)C)c(O)c2C)n1 [compound 157, 3-(5-((4-(3,3-Dimethylbutanoyl)-3-hydroxy-2-methylphenoxy)methyl)-1,2,4-oxadiazol-3-yl)-2-methylbenzoic acid] | 48 | 148
24 | COc1c(C(=O)O)cccc1-c1noc(COc2ccc(C(=O)CC(C)(C)C)c(O)c2C)n1 [compound 158, 3-(5-((4-(3,3-Dimethylbutanoyl)-3-hydroxy-2-methylphenoxy)methyl)-1,2,4-oxadiazol-3-yl)-2-methoxybenzoic acid] | 53 | 104
25 | COc1c(C(=O)O)cccc1-c1cnc(COc2ccc(C(=O)CC(C)(C)C)c(O)c2C)nc1 [compound 159, 3-(2-((4-(3,3-Dimethylbutanoyl)-3-hydroxy-2-methylphenoxy)methyl)pyrimidin-5-yl)-2-methoxybenzoic acid] | 44 | 85
